Test results taken from patent US11655239B2 (SHANGHAI INSTITUTE OF MATERIAL MEDICA, CHINESE ACADEMY OF …, priority 2019, dated 2023).

What was measured:
[1] = molecular target: PDGFR-α (Homo sapiens (Human), UniProt P16234); assay: Enzyme selectivity test (ELISA), PDGFR-α; assay type: biochemical
Protocol: (§1) 1) Enzyme reaction substrate Poly(Glu, Tyr) 4:1 was diluted to 20 μg/mL with potassium-free PBS (10 mM sodium phosphate buffer, 150 mM NaCl, pH 7.2-7.4), and the microtiter plate was coated with 125 μL/well and placed at 37° C. for 12-16 hours of reaction. The liquid in the well was discard. The plate was washed three times with T-PBS (potassium-free PBS containing 0.1% Tween-20, 200 μL/well), 5 minutes each time. The ELISA plate was dried in an oven at 37° C. for 1 to 2 hours.
(§2) 2) Reaction buffer (50 mM HEPES pH 7.4, 50 mM MgCl2, 0.5 mM MnCl2, 0.2 mM Na3VO4, 1 mM DTT) diluted ATP solution (49 μL) was added to each well, 1 μL of the compound to be tested was added to each well, and then 50 μL of DDR2 kinase domain recombinant protein diluted in the reaction buffer was added to start the reaction. Two control wells without ATP were set in each experiment. The plate placed on a shaker (100 rpm) at 37° C. for 1 hour of reaction. The liquid in the well was discarded and the plate was washed three times with T-PBS.
(§3) 3) Antibody PY99 dilution solution (the antibody was diluted 1:500 with T-PBS containing BSA 5 mg/mL) was added at 100 μL/well, and shaken on a shaker at 37° C. for 0.5 hour of reaction. The liquid in the well was discarded and the plate was washed three times with T-PBS.
(§4) 4) Horseradish peroxidase labeled goat anti-murine secondary antibody dilution solution (the antibody is diluted 1:2000 with T-PBS containing BSA 5 mg/ml) was added at 100 μL/well, and shaken on a shaker at 37° C. for 0.5 hour of reaction. The liquid in the well was discarded and the plate was washed three times with T-PBS.
(§5) 5) 2 mg/ml of OPD color developing solution [diluted with 0.1 M citric acid-sodium citrate buffer (pH=5.4) containing 0.03% H2O2] was added at 100 μL/well and reacted for 1 to 10 minutes at 25° C. in the dark.
(§6) 6) 2M H2SO4 was added at 50 μL/well to stop the reaction, and a tunable wavelength microplate reader VERSAmax was used for reading at a wavelength of 490 nm.
(§7) The IC50 value was obtained by four-parameter regression using the software that came with the microplate reader. […]

[2] = molecular target: C-Kit (Homo sapiens (Human), UniProt P10721); assay: Enzyme selectivity test (ELISA), C-Kit; assay type: biochemical
Protocol: as §1, §2, §3, §4, §5, §6, §7

[3] = molecular target: Flt-3 (Homo sapiens (Human), UniProt P36888); assay: Enzyme selectivity test (ELISA), Flt-3; assay type: biochemical
Protocol: as §1, §2, §3, §4, §5, §6, §7

[4] = molecular target: ErbB2 (Homo sapiens (Human), UniProt P04626); assay: Enzyme selectivity test (ELISA), ErbB2; assay type: biochemical
Protocol: as §1, §2, §3, §4, §5, §6, §7

[5] = molecular target: Src (Homo sapiens (Human), UniProt P12931); assay: Enzyme selectivity test (ELISA), Src; assay type: biochemical
Protocol: as §1, §2, §3, §4, §5, §6, §7

[6] = molecular target: AXL (Homo sapiens (Human), UniProt P30530); assay: Enzyme selectivity test (ELISA), AXL; assay type: biochemical
Protocol: as §1, §2, §3, §4, §5, §6, §7

[7] = molecular target: FGFR-1 (Homo sapiens (Human), UniProt P11362); assay: Enzyme selectivity test (ELISA), FGFR-1; assay type: biochemical
Protocol: as §1, §2, §3, §4, §5, §6, §7

[8] = tested on: lung fibroblast cell line MRC-5; assay: Cytotoxic activity test (MTS), MRC-5; assay type: cell-based, human; conditions: 10 μM
Protocol: (§8) Experimental objective: The cytotoxic activity of compound S15 on bronchial epithelial cell line Beas-2B and lung fibroblast cell line MRC-5 was tested.
(§9) 1) The human bronchial epithelial cell line Beas-2B and the human embryonic lung fibroblast cell line MRC-5 were collected, and inoculated at a certain density (about 5000-10000 cells) on a 96-well plate (the edge wells were filled with sterile water or PBS). A control was set on each plate (100 μL of culture medium was added);
(§10) 2) The plate was incubated overnight at 37° C., 5% CO2. The plate was turned upside down and observed under the microscope.
(§11) 3) The solutions of different concentrations of the compounds to be tested were added to each well, and a control well (culture medium and MTS solution with cells but no drug) and a blank well (without cells, medium and MTS solution) were set, 3 to 5 repetition wells were set for each group. Incubation was performed at 37° C. for 48-72 hours.
(§12) 4) 10 μL/well of MTS/PMS (20:1, Promega Corp) solution was added to each well containing 100 μL of culture medium, and then the plate was gently shaken. The plate was incubated at 37° C. for 2 to 4 hours.
(§13) 5) M5 microplate reader (Molecular Device, USA) was used to measure the absorbance of the solution at 490 nm. […]

[9] = tested on: bronchial epithelial cell line Beas-2B; assay: Cytotoxic activity test (MTS), Beas-2B; assay type: cell-based, human; conditions: 10 μM
Protocol: as §8, §9, §10, §11, §12, §13

[10] = tested on: pulmonary fibrosis induced by bleomycin in mice; assay: Hydroxyproline level of the whole lung; assay type: in vivo, mouse; conditions: Effect example 5; compared with the BLM control group
Protocol: The change in hydroxyproline was determined by using a hydroxyproline detection kit, the steps are as follows:
1) The wet weights of the lung tissues in different groups were accurately weighed, and the lung tissues were placed in a 20 ml centrifuge tube after weighing.
2) 1 ml of hydrolysate was added to a 20 ml centrifuge tube and the tube was placed in boiling water at a constant temperature for 20 minutes.
3) The pH of the sample was adjusted to 6.0-8.0 with the reagents provided in the kit.
4) The reagents in the centrifuge tube were made up to 10 ml with distilled water, and mixed thoroughly.
5) 5 ml of hydrolysate was taken from the centrifuge tube, an appropriate amount of activated carbon was added, mixed thoroughly, centrifuged at 3500 rpm for 10 minutes in a centrifuge, and 1 ml of upper supernatant layer was taken for subsequent monitoring.
6) Reagents 1, 2, and 3 were added in order, mixed thoroughly, and then placed in a water bath at 60° C. for 15 minutes, then placed at room temperature for 5 minutes, and centrifuged in a centrifuge at 3500 rpm for 10 minutes. […] Distilled water was used as the zero setting and the absorbance value of each sample at 550 nm wavelength was determined.
7) A standard curve was drew based on the absorbance of the standard, and used as a basis to determine the hydroxyproline content of each sample. […]

Chain of AXL (P30530 26-894, species assumed): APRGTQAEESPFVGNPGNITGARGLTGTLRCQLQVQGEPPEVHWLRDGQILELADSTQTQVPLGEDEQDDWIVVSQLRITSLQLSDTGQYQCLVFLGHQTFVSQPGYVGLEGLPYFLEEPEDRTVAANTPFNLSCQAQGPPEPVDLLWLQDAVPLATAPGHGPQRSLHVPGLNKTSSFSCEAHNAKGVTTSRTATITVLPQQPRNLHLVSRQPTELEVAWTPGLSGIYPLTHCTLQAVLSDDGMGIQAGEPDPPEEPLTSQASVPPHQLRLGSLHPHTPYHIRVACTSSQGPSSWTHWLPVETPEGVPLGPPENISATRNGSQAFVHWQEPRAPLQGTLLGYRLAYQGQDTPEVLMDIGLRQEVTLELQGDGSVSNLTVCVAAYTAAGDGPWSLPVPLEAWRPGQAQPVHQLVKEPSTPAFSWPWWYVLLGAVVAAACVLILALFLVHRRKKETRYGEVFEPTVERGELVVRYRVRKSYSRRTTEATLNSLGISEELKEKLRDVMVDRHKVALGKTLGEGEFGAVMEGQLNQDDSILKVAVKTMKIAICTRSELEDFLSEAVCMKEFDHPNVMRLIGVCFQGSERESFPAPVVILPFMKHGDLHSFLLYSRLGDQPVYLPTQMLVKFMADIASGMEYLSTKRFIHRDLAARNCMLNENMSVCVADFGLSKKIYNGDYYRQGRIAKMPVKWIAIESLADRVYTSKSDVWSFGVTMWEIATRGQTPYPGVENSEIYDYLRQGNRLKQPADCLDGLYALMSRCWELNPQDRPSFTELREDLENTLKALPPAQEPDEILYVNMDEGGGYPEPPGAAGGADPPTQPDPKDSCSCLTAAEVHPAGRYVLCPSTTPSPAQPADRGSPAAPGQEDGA
Chain of PDGFR-α (P16234 24-1089, species assumed): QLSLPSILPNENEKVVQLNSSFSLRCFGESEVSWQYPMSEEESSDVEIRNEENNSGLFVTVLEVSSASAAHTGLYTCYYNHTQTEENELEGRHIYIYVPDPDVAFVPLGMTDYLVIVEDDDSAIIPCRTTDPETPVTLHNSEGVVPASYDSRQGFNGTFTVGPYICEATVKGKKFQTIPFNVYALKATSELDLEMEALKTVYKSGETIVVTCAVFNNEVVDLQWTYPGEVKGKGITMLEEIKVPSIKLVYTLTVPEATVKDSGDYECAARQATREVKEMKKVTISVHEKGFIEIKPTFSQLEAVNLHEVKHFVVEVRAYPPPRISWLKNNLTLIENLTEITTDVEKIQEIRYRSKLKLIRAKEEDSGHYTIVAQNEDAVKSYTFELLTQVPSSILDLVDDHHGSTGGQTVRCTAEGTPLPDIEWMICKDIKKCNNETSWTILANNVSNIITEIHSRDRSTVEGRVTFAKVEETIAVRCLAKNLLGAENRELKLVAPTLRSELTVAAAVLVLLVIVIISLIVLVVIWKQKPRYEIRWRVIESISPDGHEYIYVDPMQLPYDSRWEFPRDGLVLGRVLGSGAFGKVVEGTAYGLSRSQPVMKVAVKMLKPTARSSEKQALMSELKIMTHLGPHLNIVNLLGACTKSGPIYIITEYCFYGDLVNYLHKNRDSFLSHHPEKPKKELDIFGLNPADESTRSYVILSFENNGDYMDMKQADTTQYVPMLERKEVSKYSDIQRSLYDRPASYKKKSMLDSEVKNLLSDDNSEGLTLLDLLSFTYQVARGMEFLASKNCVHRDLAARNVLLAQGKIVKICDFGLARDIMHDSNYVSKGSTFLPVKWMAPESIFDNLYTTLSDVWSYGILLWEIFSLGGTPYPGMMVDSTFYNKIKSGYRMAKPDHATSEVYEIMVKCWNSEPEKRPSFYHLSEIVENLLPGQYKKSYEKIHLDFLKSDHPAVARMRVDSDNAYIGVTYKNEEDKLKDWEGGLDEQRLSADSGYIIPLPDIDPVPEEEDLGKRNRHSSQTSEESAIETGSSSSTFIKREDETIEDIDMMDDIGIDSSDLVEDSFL
Chain of Src (P12931 whole entry, looked up, species assumed): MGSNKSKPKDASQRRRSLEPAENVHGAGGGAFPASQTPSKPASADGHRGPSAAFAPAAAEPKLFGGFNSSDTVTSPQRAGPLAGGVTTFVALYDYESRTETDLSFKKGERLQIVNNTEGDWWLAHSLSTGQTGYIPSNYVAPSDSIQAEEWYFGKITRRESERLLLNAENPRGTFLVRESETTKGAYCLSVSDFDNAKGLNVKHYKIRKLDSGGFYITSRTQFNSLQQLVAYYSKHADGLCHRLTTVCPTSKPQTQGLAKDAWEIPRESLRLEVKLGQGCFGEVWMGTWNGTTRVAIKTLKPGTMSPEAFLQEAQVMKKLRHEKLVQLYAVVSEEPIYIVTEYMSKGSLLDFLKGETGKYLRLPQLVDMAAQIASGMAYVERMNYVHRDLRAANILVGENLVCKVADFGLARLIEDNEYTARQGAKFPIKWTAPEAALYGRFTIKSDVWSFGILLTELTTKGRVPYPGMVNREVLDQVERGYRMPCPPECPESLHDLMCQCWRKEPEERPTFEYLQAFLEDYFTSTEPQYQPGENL
Chain of FGFR-1 (P11362 22-822, species assumed): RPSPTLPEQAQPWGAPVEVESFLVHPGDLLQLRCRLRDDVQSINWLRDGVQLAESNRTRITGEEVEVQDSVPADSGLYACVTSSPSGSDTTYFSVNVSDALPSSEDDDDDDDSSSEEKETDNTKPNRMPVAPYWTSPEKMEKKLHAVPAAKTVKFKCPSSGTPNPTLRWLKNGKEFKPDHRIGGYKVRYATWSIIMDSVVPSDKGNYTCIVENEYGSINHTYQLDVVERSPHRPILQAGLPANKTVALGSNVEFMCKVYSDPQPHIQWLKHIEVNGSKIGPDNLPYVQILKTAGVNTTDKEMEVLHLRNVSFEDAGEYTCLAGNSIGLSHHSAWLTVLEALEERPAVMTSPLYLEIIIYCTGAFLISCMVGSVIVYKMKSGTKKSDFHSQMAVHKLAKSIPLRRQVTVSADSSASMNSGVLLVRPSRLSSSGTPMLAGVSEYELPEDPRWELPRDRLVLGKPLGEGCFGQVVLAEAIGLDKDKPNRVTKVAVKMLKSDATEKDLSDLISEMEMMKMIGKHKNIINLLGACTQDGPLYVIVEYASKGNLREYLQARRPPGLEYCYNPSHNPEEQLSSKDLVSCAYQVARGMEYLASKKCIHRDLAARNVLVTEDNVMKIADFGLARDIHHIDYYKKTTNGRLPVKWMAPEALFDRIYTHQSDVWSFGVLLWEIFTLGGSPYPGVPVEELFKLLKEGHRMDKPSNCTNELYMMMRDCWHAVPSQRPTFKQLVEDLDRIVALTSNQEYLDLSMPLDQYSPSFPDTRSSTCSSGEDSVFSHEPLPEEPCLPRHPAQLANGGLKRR
Chain of Flt-3 (P36888 27-993, species assumed): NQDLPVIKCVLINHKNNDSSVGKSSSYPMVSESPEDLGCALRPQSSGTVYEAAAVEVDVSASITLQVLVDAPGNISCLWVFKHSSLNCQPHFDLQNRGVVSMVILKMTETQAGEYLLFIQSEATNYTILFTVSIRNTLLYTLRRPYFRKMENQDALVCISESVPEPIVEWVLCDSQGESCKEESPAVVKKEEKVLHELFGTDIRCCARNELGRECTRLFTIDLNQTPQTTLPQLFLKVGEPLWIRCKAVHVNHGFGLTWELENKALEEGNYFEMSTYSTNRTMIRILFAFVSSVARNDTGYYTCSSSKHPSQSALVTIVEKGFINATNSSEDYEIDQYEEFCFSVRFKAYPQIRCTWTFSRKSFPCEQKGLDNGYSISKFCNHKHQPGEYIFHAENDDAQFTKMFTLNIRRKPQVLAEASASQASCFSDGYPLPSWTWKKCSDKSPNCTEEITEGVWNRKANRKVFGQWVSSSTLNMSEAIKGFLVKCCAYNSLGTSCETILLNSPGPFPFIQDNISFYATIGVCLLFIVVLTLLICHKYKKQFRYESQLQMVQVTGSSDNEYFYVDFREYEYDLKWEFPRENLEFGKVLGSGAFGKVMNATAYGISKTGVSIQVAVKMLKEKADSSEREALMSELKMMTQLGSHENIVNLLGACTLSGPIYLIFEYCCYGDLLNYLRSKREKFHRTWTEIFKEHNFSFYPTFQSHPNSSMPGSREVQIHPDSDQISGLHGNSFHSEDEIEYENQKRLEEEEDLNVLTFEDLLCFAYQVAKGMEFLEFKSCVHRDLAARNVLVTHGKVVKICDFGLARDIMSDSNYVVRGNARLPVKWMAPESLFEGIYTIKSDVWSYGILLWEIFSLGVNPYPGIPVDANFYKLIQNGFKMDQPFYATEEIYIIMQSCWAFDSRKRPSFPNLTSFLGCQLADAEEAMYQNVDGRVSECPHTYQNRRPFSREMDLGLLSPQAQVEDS

In the case of `O=C(Nc1cccc(C(F)(F)F)c1)c1ccc(C2CC2)c(-c2ccc3nc(Nc4cnn(C5CC5)c4)ncc3c2)c1` [Compound S15, 4-cyclopropyl-3-(2-((1-cyclopropyl-1H-pyrazol-4-yl)amino)quinazolin-6-yl)-N-(3-(trifluoromethyl)phenyl)benzamide], the IC50 [1] is reported as > 1000 nM, the IC50 [2] is reported as > 1000 nM and the IC50 [3] is reported as > 1000 nM. For the same compound, the IC50 [4] was > 1000 nM, the IC50 [5] was > 100 nM and the IC50 [6] was > 1000 nM. For the same compound, the IC50 [7] was > 10 nM, the “cytotoxic activity on MRC-5” value [8] was “almost no toxicity” and the “cytotoxic activity on Beas-2B” value [9] was “almost no toxicity”. For the same compound, the “hydroxyproline level of the whole lung” value [10] was “significantly reduce the level of hydroxyproline”.
